Read-outs that look alike come from different tables or passages of the source.
What was measured:
[1] = system: Shionogi mouse mammary carcinoma cells; experiment: Androgenic/antiandrogenic activity on DHT-stimulated Shionogi cell growth; format: cell-based; settings: for IC50: Mus musculus; for Shionogi VS OH-FLU: Table 4, ratio of Ki hydroxyflutamide versus tested compound
[2] = system: rat prostate; experiment: Systemic antiandrogenic activity, orchidectomized immature male rats with DHT implant: prostate weight; format: in vivo; settings: for inhibition in vivo at 0.5 mg: Rattus norvegicus, 168 h
Experimental: (§1) Immature male rats (Crl:CD(SD)Br) 22 to 24-day old were obtained from Charles-River, Inc. (St-Constant, Quebec, Canada) and housed up to 5 per cage in plastic bins in a temperature (23±1° C.)- and light (12 h light/day, lights on at 7 h15)-controlled environment. The rats were fed rodent chow and tap water ad libitum. The day following their arrival, the animals were orchidectomized (CX) under Isoflurane anesthesia via scrotal route and randomly assigned to groups of 5 animals.
(§2) Compounds were solubilized (when possible) in dimethylsulfoxide (DMSO, 10% final concentration) and administered as suspension in 0.4% methylcellulose. […] One group of animals received the antiandrogen Flutamide as reference. The animals were killed by cervical dislocation under isoflurane anesthesia on the 8th morning following castration. The ventral prostate and seminal vesicles were rapidly dissected and weighed.
(§3) W is the weight of the prostate or the seminal vesicle.

[3] = system: rat seminal vesicle; experiment: Systemic antiandrogenic activity, orchidectomized immature male rats with DHT implant: seminal vesicle weight; format: in vivo; settings: for inhibition in vivo at 0.5 mg: Rattus norvegicus, 168 h
Experimental: as §1, §2, §3

[4] = system: sebaceous glands of the left ear; experiment: Topical antiandrogenic activity, ear sebaceous glands model in the male hamster; format: in vivo; settings: Mesocricetus auratus, 336 h, topical on left pinna, read-out: Antiandrogenic activity in Hamster Ear Area Inh Vs Cx (%); for inhibition in vivo at 0.01 mg: 10 μg daily for 14 days
Experimental: The antiandrogenic activity of compounds for topical use was determined using the ear sebaceous glands model in the male hamster.
Male Golden Syrian Hamsters (SYR) of 110-120 g were obtained from Harlan Sprague-Dawley (Madison, USA) and housed up to 2 per plastic cage in a temperature (22±3° C.) and light (12 h light/day, lights on at 7 h15)-controlled environment. The hamsters were fed with Certified Rodent Diet 5002 (pellet) and had access to tap water ad libitum. The animals were acclimatized for at least five days prior to beginning the study. Animals were randomly assigned to groups of eight hamsters. One group of hamsters were castrated under isoflurane-induced anesthesia on the day of dosing initiation (SD 1) and used as control group.
To evaluate the antiandrogenic activity, the tested compounds were applied topically on the inner part of the left ear, once daily, for 14 days. […] For animals of the castrated and intact control groups, one ten-μL vehicle was applied onto the left ear. No solution was applied on the right ear.
On Study Day 15, the hamsters were euthanized by cervical dislocation under isoflurane anesthesia. The left and right ears were collected attached together by the head skin, flat fixed on a paper and then immersed in 10% neutral buffered formalin. Punctures making a circular hole of 6 mm were made on the flat fixed ear in the region where the solution has been applied. These punch-made specimens were collected from each ear. Using a scalpel blade, the collected 6 mm round ear specimens were cut in the middle between the two cartilage ridges. The two equal parts of the ear round specimens were embedded in paraffin. After processing the tissue, the two parts were vertically embedded parallel to each other in such a way that the flat 6 mm area was facing out. From each paraffin block, one section (5 μm thick) was cut and collected on a glass slide. Thus, each slide contained two elongated sections of 6 mm length. Slides were stained with hematoxylin and eosin.
Using the video camera and the lens number X5 of the light microscope, the resulting field appearing on the screen has a length of 0.953 mm. When the first 6 mm long section was examined from the left to the right, the first and second fields were ignored and the third and fourth fields were captured for analysis by the image analyzer. Each field has the length of 0.953 mm. With the help of the screen mouse, the sebaceous glands within the whole field length (0.953 mm) were marked. Also, an area having the length of the whole field and the height between stratum granulosum and the upper edge of the cartilage was drawn.
The total area of the sebaceous glands (μm^2) in each examined field was calculated by the Image Analyser. We also measured the total area, which has the length of 0.953 mm and the height between stratum granulosum and the cartilage. In addition, the percentage of the area occupied by the glands was obtained. Thus, for each ear, two sections were cut and two fields from each section were analyzed. The total of the four readings was averaged and the mean standard error of the mean was calculated by the image analyzer. The results were expressed in μm^2 as the total surface of glands per field and also as percentage of the area occupied by the glands in the tissue.

[5] = molecular target: T1, Human Androgen Receptor (Homo sapiens, UniProt P10275); experiment: Androgen receptor binding assay (hydroxylapatite, [3H]R1881, cytosol of transfected HEK-293 cells); settings: for Androgen Receptor Binding (%) Human RBA R1881 = 100: % RBA=100×IC50 R1881/IC50 compound, transfected cells; for RBA human: Table 4, relative to R1881
T1 sequence (P10275 1-920): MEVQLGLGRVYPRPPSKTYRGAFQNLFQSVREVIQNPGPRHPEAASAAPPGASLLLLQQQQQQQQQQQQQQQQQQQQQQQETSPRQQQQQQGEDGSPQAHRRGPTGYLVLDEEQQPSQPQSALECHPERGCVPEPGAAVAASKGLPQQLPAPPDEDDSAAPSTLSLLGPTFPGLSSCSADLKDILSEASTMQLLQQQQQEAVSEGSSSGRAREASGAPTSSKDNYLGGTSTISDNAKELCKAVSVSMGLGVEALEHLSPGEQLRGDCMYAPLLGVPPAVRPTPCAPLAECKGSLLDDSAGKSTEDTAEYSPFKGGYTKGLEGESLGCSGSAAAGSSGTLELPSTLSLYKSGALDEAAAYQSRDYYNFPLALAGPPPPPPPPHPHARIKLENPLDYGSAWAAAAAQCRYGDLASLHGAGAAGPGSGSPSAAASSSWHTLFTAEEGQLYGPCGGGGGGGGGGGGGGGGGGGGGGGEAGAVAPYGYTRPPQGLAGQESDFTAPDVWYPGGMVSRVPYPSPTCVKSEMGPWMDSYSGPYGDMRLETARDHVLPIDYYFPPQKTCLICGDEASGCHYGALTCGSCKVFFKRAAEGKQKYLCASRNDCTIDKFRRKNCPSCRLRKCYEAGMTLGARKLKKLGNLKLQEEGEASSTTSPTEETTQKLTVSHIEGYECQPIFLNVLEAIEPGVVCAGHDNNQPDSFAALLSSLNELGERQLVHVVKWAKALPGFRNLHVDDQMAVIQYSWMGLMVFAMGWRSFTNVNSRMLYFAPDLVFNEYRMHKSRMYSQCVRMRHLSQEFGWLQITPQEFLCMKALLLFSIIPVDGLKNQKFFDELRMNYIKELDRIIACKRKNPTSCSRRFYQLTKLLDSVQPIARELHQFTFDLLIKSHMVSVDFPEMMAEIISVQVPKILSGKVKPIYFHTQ

[6] = read-out: Shionogi Antiandrogenic activity IC50 (nM), inhibition of DHT-stimulated Shionogi cell number
[7] = read-out: Shionogi IC50 (nM), Table 4, inhibition of DHT-stimulated Shionogi cell number
[8] = po, 0.5 mg, per os, read-out: Prostate Rat Inh % inh (0.5 mg, per os)
[9] = po, 0.5 mg, per os, read-out: SV RAT Inh % inh (0.5 mg, per os)

CC(C)CNC(C)(C)c1cccc(OCC[C@]23CCC4C(CCC5CC(=O)CC[C@@]54C)C2CC[C@@H]3O)c1 (some centres unmarked) [EM-6534]
IC50 [1, 6]: 0.4 nM
IC50 [1, 7]: 0.23 nM
Shionogi VS OH-FLU [1]: 267
inhibition in vivo at 0.5 mg [2, 8]: 9%
inhibition in vivo at 0.5 mg [3, 9]: 16%
inhibition in vivo at 0.01 mg [4]: 48%
inhibition in vivo at 0.1 mg ([4]; 100 μg daily for 14 days): 84%
Androgen Receptor Binding (%) Human RBA R1881 = 100 [5]: 112%
RBA human [5]: 112%

COC1CCC2C3CCC4CC(=O)CC[C@]4(C)C3CC[C@]12CCOc1cccc(C(C)(C)NCC(C)C)c1 (some centres unmarked) [EM-6628]
IC50 [1, 7]: 5.9 nM
Shionogi VS OH-FLU [1]: 14
inhibition in vivo at 0.5 mg [2, 8]: 15%
inhibition in vivo at 0.5 mg [3, 9]: 0%
inhibition in vivo at 0.01 mg [4]: 58.1%
RBA human [5]: 796%

CCC(NC1CCCC1)c1cccc(OCC[C@]23CCC4C(CCC5CC(=O)CC[C@@]54C)C2CC[C@@H]3OC)c1 (some centres unmarked) [EM-6640]
IC50 [1, 7]: 18 nM
Shionogi VS OH-FLU [1]: 5.3
inhibition in vivo at 0.5 mg [2, 8]: 10%
inhibition in vivo at 0.5 mg [3, 9]: 0%
inhibition in vivo at 0.01 mg [4]: 46.3%
RBA human [5]: 438%

CCC(CC)N(C)C(CC)c1cccc(OCC[C@]23CCC4C5CCC(=O)C=C5CCC4C2CC[C@@H]3O)c1 (some centres unmarked) [EM-6680]
IC50 [1, 6]: 1.2 nM
inhibition in vivo at 0.5 mg [2, 8]: 0%
inhibition in vivo at 0.5 mg ([2]; sc, read-out: IN VIVO Rat s.c. (+DHT) Prostate % inhibition, s.c., 0.5 mg/animal once daily for 7 days, +DHT): 0%
IN VIVO Rat (+DHT) Prostate % inhibition (per os) ([2]; per os, +DHT): 0 (p.o.) %
Prostate Rat Inh % inh, s.c. ([2]; s.c.): 0 s.c. 0%
inhibition in vivo at 0.5 mg [3, 9]: 21%
inhibition in vivo at 0.5 mg ([3]; sc, read-out: IN VIVO Rat s.c. (+DHT) SV % inhibition, s.c., 0.5 mg/animal once daily for 7 days, +DHT): 40%
IN VIVO Rat (+DHT) SV % inhibition (per os) ([3]; per os, +DHT): 21%
SV RAT Inh % inh, s.c. ([3]; s.c.): 40%
inhibition in vivo at 0.01 mg [4]: 64.7%
Androgen Receptor Binding (%) Human RBA R1881 = 100 [5]: 140%
RBA human [5]: 140%

CCC[C@H](NC1CCCCC1)c1cccc(OCC[C@]23CCC4C(CCC5CC(=O)CC[C@@]54C)C2CCC3=O)c1 (some centres unmarked) [EM-6736]
IC50 [1, 7]: 1.8 nM
Shionogi VS OH-FLU [1]: 43
inhibition in vivo at 0.01 mg [4]: 49.5%
RBA human [5]: 154%

CC(C)CNC(C)(C)c1cccc(OCC[C@]23CCC4C(CCC5CC(=O)CC[C@@]54C)C2CCC3=O)c1 (some centres unmarked) [EM-6741]
IC50 [1, 7]: 0.6 nM
Shionogi VS OH-FLU [1]: 153
inhibition in vivo at 0.01 mg [4]: 51.7%
RBA human [5]: 230%

CCCC(NC(CC)CC)c1cccc(OCC[C@]23CCC4C(CCC5CC(=O)CC[C@@]54C)C2CCC3=O)c1 (some centres unmarked) [EM-6842]
IC50 [1, 7]: 0.4 nM
Shionogi VS OH-FLU [1]: 183
inhibition in vivo at 0.5 mg [2, 8]: 18%
inhibition in vivo at 0.5 mg [3, 9]: 27%
inhibition in vivo at 0.01 mg [4]: 63.8%
RBA human [5]: 451%

Reference: patent publication US9090651B2, “Helix 12 directed pharmaceutical products” (ENDORECHERCHE, INC., priority 2004, dated 2015)
